Results reported in ChEMBL document CHEMBL5034018, “LXR-Mediated Regulation of Marine-Derived Piericidins Aggravates High-Cholesterol Diet-Induced Cholesterol Metabolism Disorder in Mice” (J Med Chem, 2021).
Active and inactive are the calls of the source. No cut-off for these calls is given here.

Assays:
HepG2 [1] = test: Induction of mitochondrial dysfunction in human HepG2 cells assessed as decrease in ILbeta level at 5 to 10 uM after 48 hrs; assay type: cell-based; parameters: scale not given: the % may be the effect or the level left; conditions: hepg2, 48 h, dose 5-10 µM
[2] = Induction of LDLR protein expression level in chow diet fed C57BL/6 mouse at 0.8 mg/kg, ip; assay type: functional
HepG2 [3] = test: Induction of mitochondrial dysfunction in human HepG2 cells assessed as increase in ROS production at 0.1 to 5 uM after 48 hrs by flow cytometric analysis; assay type: cell-based; conditions: hepg2, 48 h, dose 0.1-5 µM
[4] = Induction of LDLR protein expression level in HCD-fed C57BL/6 mouse at 0.8 mg/kg, ip; assay type: functional
HepG2 [5] = test: Induction of apoptosis in human HepG2 cells assessed as live cells at 5 uM measured after 48 hrs by Annexin-V-FITC/propidium iodide staining based flow cytometry (reference value: 84.5 %); assay type: functional
Mus musculus [6] = test: Induction of histopathological changes in HCD-fed C57BL/6 mouse assessed as white discoloration of liver at 0.8 mg/kg, ip; assay type: organism-based; conditions: in vivo
Mus musculus [7] = species on record: Mus musculus; test: Effect on bile acid homeostasis in HCD-fed C57BL/6 mouse assessed as change in Car protein expression; assay type: functional
Mus musculus [8] = test: Induction of histopathological changes in HCD-fed C57BL/6 mouse assessed as swelling gallbladder size at 0.8 mg/kg, ip; assay type: organism-based; conditions: in vivo
[9] = Toxicity in renal carcinoma xenografted C57BL/6 mouse assessed as change in IL-1beta level at 0.8 mg/kg, ip; assay type: organism-based; conditions: in vivo
[10] = Toxicity in renal carcinoma xenografted C57BL/6 mouse assessed as effect on visceral coefficient of kidney at 0.8 mg/kg, ip; assay type: organism-based; conditions: in vivo
HepG2 [11] = test: Effect on LXRalpha mRNA level in human HepG2 cells at 1 to 5 uM by RT-qPCR analysis; assay type: functional, cell-based; conditions: dose 1-5 µM
[12] = Effect on bile acid homeostasis in HCD-fed C57BL/6 mouse assessed as decrease in FXR mRNA expression by RT-qPCR analysis; assay type: functional; parameters: scale not given: the % may be the effect or the level left
[13] = Drug metabolism in mouse liver assessed as PA formation at 10 mg/kg, po after 180 mins by LC-MS/MS analysis; assay type: ADME, organism-based; conditions: in vivo, 3 h
HepG2 [14] = test: Cytotoxicity against human HepG2 cells assessed as reduction in cell viability at < 10 uM incubated for 48 hrs by MTT assay; assay type: cell-based; conditions: hepg2, 48 h
[15] = Effect on bile acid homeostasis in HCD-fed C57BL/6 mouse assessed as fold increase in LXRalpha mRNA expression by RT-qPCR analysis; assay type: functional
HepG2 [16] = test: Induction of apoptosis in human HepG2 cells assessed as early apoptotic cells at 5 uM measured after 48 hrs by Annexin-V-FITC/propidium iodide staining based flow cytometry (reference value: 15.5 %); assay type: functional
[17] = Effect on bile acid homeostasis in HCD-fed C57BL/6 mouse assessed as decrease in Car mRNA expression by RT-qPCR analysis; assay type: functional; parameters: scale not given: the % may be the effect or the level left
HepG2 [18] = test: Down regulation of ABCB1 protein level in human HepG2 cells at 1 to 5 uM by Western blot analysis; assay type: functional, cell-based; conditions: dose 1-5 µM
[19] = Effect on bile acid homeostasis in HCD-fed C57BL/6 mouse assessed as fold increase in Mrp3 mRNA expression by RT-qPCR analysis; assay type: functional
Mus musculus [20] = test: Induction of HCD-induced cholestasis in C57BL/6 mouse assessed as large scale necrotic foci at 0.8 mg/kg, ip; assay type: functional, organism-based
Mus musculus [21] = test: Induction of HCD-induced cholestasis in C57BL/6 mouse assessed as fold increase in liver total bile acid level at 0.8 mg/kg, ip; assay type: organism-based; conditions: in vivo
HepG2 [22] = test: Down regulation of LXRalpha protein level in human HepG2 cells at 1 to 5 uM by Western blot analysis; assay type: functional, cell-based; conditions: dose 1-5 µM
[23] = Inhibition of FXR protein expression level in HCD-fed C57BL/6 mouse at 0.8 mg/kg, ip; assay type: functional; conditions: C57BL/6, ip
[24] = Toxicity in HCD-fed C57BL/6 mouse assessed as fold increase in AST level at 0.8 mg/kg, ip; assay type: organism-based; conditions: in vivo
[25] = Induction of SHP mRNA level in human HepG2 cells assessed as fold increase in SHP expression at 1 uM by RT-qPCR analysis; assay type: functional
[26] = Down regulation of Cyp7a1 mRNA expression level in human HepG2 cells at 5 uM by RT-qPCR analysis; assay type: functional
[27] = Toxicity in renal carcinoma xenografted C57BL/6 mouse assessed as change in IL-6 level at 0.8 mg/kg, ip; assay type: organism-based; conditions: in vivo
[28] = Induction of FXR mRNA level in human HepG2 cells assessed as fold increase in FXR expression at 1 uM by RT-qPCR analysis; assay type: functional
Mus musculus [29] = test: Induction of HCD-induced cholestasis in C57BL/6 mouse assessed as fold increase in plasma LDL-cholesterol level at 0.8 mg/kg, ip; assay type: functional
[30] = Effect on bile acid homeostasis in HCD-fed C57BL/6 mouse assessed as inhibition of Cyp8b1 mRNA expression by RT-qPCR analysis; assay type: functional; parameters: scale not given: the % may be the effect or the level left
[31] = Drug metabolism in mouse liver assessed as PA formation at 10 mg/kg, po after 30 mins by LC-MS/MS analysis; assay type: ADME, organism-based; conditions: in vivo, 0.5 h
Mus musculus [32] = test: Induction of HCD-induced cholestasis in C57BL/6 mouse assessed as fold increase in liver total cholesterol level at 0.8 mg/kg, ip; assay type: organism-based; conditions: in vivo
[33] = molecular target: T1, Oxysterols receptor LXR-alpha (Homo sapiens, UniProt Q13133); test: Binding affinity to full-length human LXRalpha by surface plasmon resonance assay
T1 sequence (Q13133 whole entry): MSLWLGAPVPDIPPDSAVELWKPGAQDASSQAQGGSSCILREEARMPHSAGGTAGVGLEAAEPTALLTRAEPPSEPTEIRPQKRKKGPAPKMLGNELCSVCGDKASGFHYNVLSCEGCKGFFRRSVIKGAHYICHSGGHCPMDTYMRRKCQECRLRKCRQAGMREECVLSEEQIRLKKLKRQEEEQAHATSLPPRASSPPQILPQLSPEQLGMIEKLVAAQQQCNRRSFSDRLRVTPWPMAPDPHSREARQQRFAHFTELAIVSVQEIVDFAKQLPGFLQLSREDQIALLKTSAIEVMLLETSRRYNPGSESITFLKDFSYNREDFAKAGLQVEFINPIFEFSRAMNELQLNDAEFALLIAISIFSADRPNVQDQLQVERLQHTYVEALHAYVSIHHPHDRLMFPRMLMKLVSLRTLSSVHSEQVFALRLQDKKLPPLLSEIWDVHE

[34] = Down regulation of FXR mRNA level in human HepG2 cells at 5 uM by RT-qPCR analysis; assay type: functional
HepG2 [35] = test: Induction of mitochondrial dysfunction in human HepG2 cells assessed as decrease in TNFalpha level at 1 uM after 48 hrs; assay type: cell-based; parameters: scale not given: the % may be the effect or the level left; conditions: hepg2, 48 h
[36] = Down regulation of SHP mRNA level in human HepG2 cells at 1 uM by RT-qPCR analysis; assay type: functional
[37] = Down regulation of FXR mRNA level in human HepG2 cells at 1 uM by RT-qPCR analysis; assay type: functional

With C/C=C(\C)[C@H](O[C@@H]1O[C@H](CO)[C@@H](O)[C@H](O)[C@H]1O)[C@H](C)/C=C(C)/C=C/C/C(C)=C/Cc1nc(OC)c(OC)c(O)c1C the Activity (HepG2 [1]) was 68%, the “fold change (FC)” value [2] was 1.5 and the Activity (HepG2 [3]) was “Non-Toxic”. The “fold change (FC)” value [4] was 1.6, the Activity (HepG2 [5]) was 64.3% and the Activity (Mus musculus [6]) was “Toxic”. The Activity (Mus musculus [7]) was “inactive”, the Activity (Mus musculus [8]) was “Toxic” and the Activity [9] was “Non-Toxic”. The Activity [10] was “Non-Toxic”, the Activity (HepG2 [11]) was “inactive” and the Activity [12] was 60%. For the same molecule, the Drug metabolism [13] was “Metabolite_Detected”, the Activity (HepG2 [14]) was “Non-Toxic” and the “fold change (FC)” value [15] was 1.4. For the same molecule, the Activity (HepG2 [16]) was 35.7%, the Activity [17] was 86% and the Activity (HepG2 [18]) was “Active”. The “fold change (FC)” value [19] was 1.65, the Activity (Mus musculus [20]) was “Active” and the “fold change (FC)” value (Mus musculus [21]) was 2.3. For the same molecule, the Activity (HepG2 [22]) was “Active”, the inhibition in vivo at 0.8 mg/kg [23] was 31% and the “fold change (FC)” value [24] was 2.3. The “fold change (FC)” value [25] was 3.6, the Activity [26] was 38% and the Activity [27] was “Non-Toxic”. The “fold change (FC)” value [28] was 3.6, the “fold change (FC)” value (Mus musculus [29]) was 2.3 and the Activity [30] was 3%. For the same molecule, the Drug metabolism [31] was 14.87 ng/mL and the “fold change (FC)” value (Mus musculus [32]) was 3.8.

With C/C=C(\C)[C@H](O)[C@H](C)/C=C(C)/C=C/C/C(C)=C/Cc1nc(OC)c(OC)c(O)c1C [PIERICIDIN A] the Kd [33] was 3.24 µM, the Activity [34] was 34% and the Activity (HepG2 [3]) was “Non-Toxic”. The Activity (HepG2 [5]) was 75.4%, the Activity (Mus musculus [6]) was “Toxic” and the Activity (Mus musculus [7]) was “inactive”. For the same molecule, the Activity (Mus musculus [8]) was “Toxic”, the Activity (HepG2 [35]) was 54% and the Activity [9] was “Non-Toxic”. For the same molecule, the Activity [10] was “Non-Toxic”, the Activity [12] was 58% and the Activity (HepG2 [14]) was “Non-Toxic”. For the same molecule, the Activity [36] was 55%, the “fold change (FC)” value [15] was 1.3 and the Activity (HepG2 [16]) was 24.6%. For the same molecule, the Activity [37] was 56%, the Activity [17] was 50% and the Activity (Mus musculus [20]) was “Active”. For the same molecule, the “fold change (FC)” value (Mus musculus [21]) was 2.2, the inhibition in vivo at 0.8 mg/kg [23] was 79% and the “fold change (FC)” value [24] was 2.3. For the same molecule, the Activity [26] was 26%, the Activity [27] was “Non-Toxic” and the “fold change (FC)” value (Mus musculus [29]) was 2.6. The Activity [30] was 2.8% and the “fold change (FC)” value (Mus musculus [32]) was 2.7.
